Source: ChEMBL document CHEMBL1158459, “Discovery of a peroxisome proliferator activated receptor gamma (PPARgamma) modulator with balanced PPARalpha activity for the treatment of type 2 diabetes and dyslipidemia” (J Med Chem, 2009)
pEC50, pIC50: −log10 of the molar value. Calls of active or inactive are those of the source. The calls are words filed in the database; no cut-off is given here.

Key:
[1] = test system: Rattus norvegicus; assay: Antidiabetic activity in Zucker fa/fa rat assessed as decrease in triglyceride levels at 100 mg/kg, po once daily for 7 days; type: functional, organism-based; set-up: dose 100 mg/kg
[2] = AUC in Beagle dog at 3 mg/kg, po once daily for 14 days; type: ADME, organism-based, Canis lupus familiaris; set-up: dose 3 mg/kg, route oral; conditions: plasma
[3] = test system: Syrian golden hamster; assay: Antidiabetic activity in Syrian golden hamster assessed as reduction in cholesterol level at 1 mg/kg, po once daily for 9 days relative to control; type: functional, Mesocricetus auratus; set-up: scale not given: the % may be the effect or the level left
[4] = test system: Rattus norvegicus; assay: Toxicity in Zucker fa/fa rat assessed as increase in plasma volume at 10 mg/kg, po treated once daily for 7 days; conditions: in vivo, 168 h
[5] = target: Nuclear receptor subfamily 1 group I member 2 (Homo sapiens, UniProt O75469); assay: Binding affinity to PXR up to 10 uM
[6] = AUC in Sprague-Dawley rat at 60 mg/kg, po once daily for 14 days; type: ADME, organism-based; set-up: dose 60 mg/kg, route oral; conditions: plasma
[7] = target: T1, Peroxisome proliferator-activated receptor gamma (Homo sapiens, UniProt P37231)
T1 sequence (P37231 whole entry): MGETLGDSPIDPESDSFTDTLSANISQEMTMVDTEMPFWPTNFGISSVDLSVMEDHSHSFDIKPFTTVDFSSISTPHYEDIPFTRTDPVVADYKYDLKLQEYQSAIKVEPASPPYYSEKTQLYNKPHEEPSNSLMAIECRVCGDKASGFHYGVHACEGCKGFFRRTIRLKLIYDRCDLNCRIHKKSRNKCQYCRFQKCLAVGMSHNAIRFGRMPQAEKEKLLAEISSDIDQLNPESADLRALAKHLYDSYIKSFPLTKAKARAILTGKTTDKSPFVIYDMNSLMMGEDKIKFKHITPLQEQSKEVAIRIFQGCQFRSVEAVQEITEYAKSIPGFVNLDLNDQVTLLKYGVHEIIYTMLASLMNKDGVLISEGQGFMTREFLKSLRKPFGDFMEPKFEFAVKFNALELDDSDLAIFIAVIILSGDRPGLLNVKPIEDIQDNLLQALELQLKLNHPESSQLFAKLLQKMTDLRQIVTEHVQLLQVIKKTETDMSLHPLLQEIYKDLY
Description: Agonist activity at human PPARgamma receptor expressed in african green monkey COS1 cells co-transfected with fused yeast Gal4-DBD by transactivation assay

[8] = test system: Mus musculus; assay: Antidiabetic activity in ob/ob mouse assessed as insulin correction at 10 mg/kg, po once daily for 5 days relative to control; type: functional
[9] = test system: Rattus norvegicus; assay: Antidiabetic activity in Zucker fa/fa rat assessed as decrease in free fatty acid levels at 3 mg/kg, po once daily for 7 days; type: functional, organism-based; set-up: dose 3 mg/kg
[10] = test system: Mus musculus; assay: Antidiabetic activity in C57BLKS/J-m+/+Leprdb db/db mouse assessed as reduction in plasma glucose levels at 1 mg/kg, po once daily for 11 days relative to control; type: functional; set-up: scale not given: the % may be the effect or the level left
[11] = test system: Rattus norvegicus; assay: Toxicity in Zucker fa/fa rat assessed as increase in heart weight at 15 mg/kg, po treated once daily for 7 days; type: organism-based; set-up: dose 15 mg/kg, route oral; conditions: in vivo, 168 h
[12] = Cmax in Syrian golden hamster at 0.3 mg/kg, po once daily for 9 days; type: ADME, organism-based, Mesocricetus auratus; set-up: dose 0.3 mg/kg, route oral; conditions: in vivo
[13] = target: Retinoic acid receptor RXR-alpha (Homo sapiens) (UniProt P19793); assay: Binding affinity to RXRalpha up to 10 uM
[14] = Cmax in C57BLKS/J-m+/+Leprdb db/db mouse at 10 mg/kg, po once daily for 11 days; type: ADME, organism-based; set-up: dose 10 mg/kg, route oral; conditions: in vivo
[15] = Cmax in C57BLKS/J-m+/+Leprdb db/db mouse at 1 mg/kg, po once daily for 11 days; type: ADME, organism-based; set-up: dose 1 mg/kg, route oral; conditions: in vivo
[16] = AUC in Syrian golden hamster at 3 mg/kg, po once daily for 9 days; type: ADME, organism-based, Mesocricetus auratus; set-up: dose 3 mg/kg, route oral; conditions: plasma
[17] = test system: Mus musculus; assay: Antidiabetic activity in C57BLKS/J-m+/+Leprdb db/db mouse assessed as reduction in plasma glucose levels at 3 mg/kg, po once daily for 11 days relative to control; type: functional; set-up: scale not given: the % may be the effect or the level left
[18] = target: Thyroid hormone receptor alpha (Homo sapiens) (UniProt P10827); assay: Binding affinity to TRalpha up to 10 uM
[19] = test system: Mus musculus; assay: Antidiabetic activity in C57BLKS/J-m+/+Leprdb db/db mouse assessed as reduction in plasma triglyceride levels at 10 mg/kg, po once daily for 11 days relative to control; type: functional; set-up: scale not given: the % may be the effect or the level left
[20] = Cmax in Beagle dog at 1 mg/kg, po once daily for 14 days; type: ADME, organism-based, Canis lupus familiaris; set-up: dose 1 mg/kg, route oral; conditions: in vivo
[21] = test system: Mus musculus; assay: Antidiabetic activity in C57BLKS/J-m+/+Leprdb db/db mouse assessed as reduction in plasma glucose levels at 10 mg/kg, po once daily for 11 days relative to control; type: functional; set-up: scale not given: the % may be the effect or the level left
[22] = target: T2, Peroxisome proliferator-activated receptor alpha (Homo sapiens, UniProt Q07869); assay: Inhibition of human PPARalpha receptor by scintillation proximity assay
T2 sequence (Q07869 whole entry): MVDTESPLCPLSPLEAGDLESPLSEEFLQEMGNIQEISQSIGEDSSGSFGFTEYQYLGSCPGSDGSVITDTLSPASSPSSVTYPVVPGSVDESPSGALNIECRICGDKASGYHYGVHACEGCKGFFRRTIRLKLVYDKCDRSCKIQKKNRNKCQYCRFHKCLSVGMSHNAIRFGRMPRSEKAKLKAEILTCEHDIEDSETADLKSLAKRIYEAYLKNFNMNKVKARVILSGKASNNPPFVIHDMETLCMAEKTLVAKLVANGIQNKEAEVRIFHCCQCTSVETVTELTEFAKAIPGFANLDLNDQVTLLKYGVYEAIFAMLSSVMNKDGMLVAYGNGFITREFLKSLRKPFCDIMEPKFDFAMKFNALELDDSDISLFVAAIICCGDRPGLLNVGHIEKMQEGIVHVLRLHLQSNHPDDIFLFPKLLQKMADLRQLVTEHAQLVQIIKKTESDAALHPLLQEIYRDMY

[23] = test system: Rattus norvegicus; assay: Antidiabetic activity in Zucker fa/fa rat assessed as decrease in free fatty acid levels at 15 mg/kg, po once daily for 7 days; type: functional, organism-based; set-up: dose 15 mg/kg
[24] = target: Cytochrome P450 2D6 (Homo sapiens, UniProt P10635); assay: Inhibition of CYP2D6; type: ADME
[25] = Cmax in Beagle dog at 3 mg/kg, po once daily for 14 days; type: ADME, organism-based, Canis lupus familiaris; set-up: dose 3 mg/kg, route oral; conditions: in vivo
[26] = target: Thyroid hormone receptor beta (Homo sapiens) (UniProt P10828); assay: Binding affinity to TRbeta up to 10 uM
Sequence of Thyroid hormone receptor beta (Homo sapiens) (P10828 whole entry): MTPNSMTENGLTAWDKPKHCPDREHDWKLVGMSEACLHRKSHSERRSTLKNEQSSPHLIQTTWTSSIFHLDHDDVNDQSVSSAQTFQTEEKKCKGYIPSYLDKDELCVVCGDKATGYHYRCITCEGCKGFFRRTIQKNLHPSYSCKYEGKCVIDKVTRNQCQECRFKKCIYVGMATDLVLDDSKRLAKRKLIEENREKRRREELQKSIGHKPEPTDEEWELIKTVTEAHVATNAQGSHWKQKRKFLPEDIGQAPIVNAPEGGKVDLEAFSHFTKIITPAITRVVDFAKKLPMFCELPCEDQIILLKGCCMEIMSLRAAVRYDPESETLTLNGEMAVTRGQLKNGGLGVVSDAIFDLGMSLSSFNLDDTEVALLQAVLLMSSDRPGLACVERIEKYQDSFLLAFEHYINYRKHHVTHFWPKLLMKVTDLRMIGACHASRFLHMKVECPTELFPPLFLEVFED

Sequence of Retinoic acid receptor RXR-alpha (Homo sapiens) (P19793 whole entry): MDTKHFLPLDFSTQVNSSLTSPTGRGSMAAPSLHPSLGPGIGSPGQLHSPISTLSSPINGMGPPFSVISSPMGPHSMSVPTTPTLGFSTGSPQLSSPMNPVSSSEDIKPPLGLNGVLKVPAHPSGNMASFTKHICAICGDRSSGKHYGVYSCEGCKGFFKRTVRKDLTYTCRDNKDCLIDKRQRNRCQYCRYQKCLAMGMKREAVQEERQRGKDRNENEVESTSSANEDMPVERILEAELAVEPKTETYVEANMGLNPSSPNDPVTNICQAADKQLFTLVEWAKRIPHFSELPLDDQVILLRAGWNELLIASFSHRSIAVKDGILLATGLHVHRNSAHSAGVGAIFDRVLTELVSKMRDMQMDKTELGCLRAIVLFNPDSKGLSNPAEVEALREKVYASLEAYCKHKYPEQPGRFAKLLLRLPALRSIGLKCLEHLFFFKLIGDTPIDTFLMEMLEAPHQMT
Sequence of Thyroid hormone receptor alpha (Homo sapiens) (P10827 whole entry): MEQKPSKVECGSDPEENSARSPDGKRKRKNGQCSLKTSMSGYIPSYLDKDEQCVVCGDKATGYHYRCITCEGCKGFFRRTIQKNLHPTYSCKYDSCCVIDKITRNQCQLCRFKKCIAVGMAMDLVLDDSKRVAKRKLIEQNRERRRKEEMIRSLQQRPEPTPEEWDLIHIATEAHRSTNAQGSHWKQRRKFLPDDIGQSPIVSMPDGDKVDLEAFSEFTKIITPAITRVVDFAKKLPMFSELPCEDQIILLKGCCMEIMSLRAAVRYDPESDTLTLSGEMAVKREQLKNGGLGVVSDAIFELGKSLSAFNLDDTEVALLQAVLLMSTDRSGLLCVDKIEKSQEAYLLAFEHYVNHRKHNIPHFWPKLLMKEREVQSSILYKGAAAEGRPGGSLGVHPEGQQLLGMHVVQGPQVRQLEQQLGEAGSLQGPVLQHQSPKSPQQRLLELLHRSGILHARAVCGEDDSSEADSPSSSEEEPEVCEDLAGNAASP
Sequence of Nuclear receptor subfamily 1 group I member 2 (O75469 whole entry): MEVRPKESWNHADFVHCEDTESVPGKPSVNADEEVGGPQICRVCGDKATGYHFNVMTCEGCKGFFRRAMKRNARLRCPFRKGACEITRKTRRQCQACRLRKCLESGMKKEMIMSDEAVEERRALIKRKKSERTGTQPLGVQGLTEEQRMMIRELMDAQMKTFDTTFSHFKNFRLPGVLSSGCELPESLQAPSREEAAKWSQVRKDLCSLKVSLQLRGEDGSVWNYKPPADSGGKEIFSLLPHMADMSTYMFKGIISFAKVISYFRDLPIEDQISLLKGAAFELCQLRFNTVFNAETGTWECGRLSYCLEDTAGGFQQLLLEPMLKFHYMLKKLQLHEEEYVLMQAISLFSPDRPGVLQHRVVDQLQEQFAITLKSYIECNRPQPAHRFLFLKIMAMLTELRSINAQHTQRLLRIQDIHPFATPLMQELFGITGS
Sequence of Cytochrome P450 2D6 (P10635 whole entry): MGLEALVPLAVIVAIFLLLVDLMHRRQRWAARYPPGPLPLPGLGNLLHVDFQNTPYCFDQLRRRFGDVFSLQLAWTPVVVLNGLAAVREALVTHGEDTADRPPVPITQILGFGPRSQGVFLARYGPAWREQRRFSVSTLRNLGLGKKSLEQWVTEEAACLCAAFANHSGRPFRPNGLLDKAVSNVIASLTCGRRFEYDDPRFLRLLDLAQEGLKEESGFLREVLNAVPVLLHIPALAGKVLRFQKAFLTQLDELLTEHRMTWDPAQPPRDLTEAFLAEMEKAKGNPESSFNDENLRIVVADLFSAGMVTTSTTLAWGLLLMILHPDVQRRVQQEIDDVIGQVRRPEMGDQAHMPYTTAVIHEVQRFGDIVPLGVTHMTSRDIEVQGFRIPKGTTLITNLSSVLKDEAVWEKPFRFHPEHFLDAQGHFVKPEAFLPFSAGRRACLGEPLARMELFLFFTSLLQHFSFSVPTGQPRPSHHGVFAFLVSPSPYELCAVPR

With CC[C@@H](Oc1cccc(Cn2c(C)c(C(=O)c3ccc(Cl)cc3)c3ccc(OC(F)(F)F)cc32)c1)C(=O)O the Activity [1] was “Active”, the AUC at 336 h [2] was 21.4 µM·h and the Activity [3] was 33.9%. The Activity [4] was “Toxic”, the Activity [5] was “Not Active” and the AUC at 336 h [6] was 40 µM·h. For the same compound, the pEC50 [7] was 8.70, the Activity [8] was 89% and the Activity [9] was “Active”. The Activity [10] was 78%, the Activity [11] was “Non-toxic” and the Cmax [12] was 20 nM. The Activity [13] was “inactive”, the Cmax [14] was 9600 nM and the Cmax [15] was 1500 nM. For the same compound, the AUC at 216 h [16] was 2.11 µM·h, the Activity [17] was 98% and the Activity [18] was “inactive”. For the same compound, the Activity [19] was 84%, the Cmax [20] was 1030 nM and the Activity [21] was 101%. The pIC50 [22] was 5.58, the Activity [23] was “Active” and the pIC50 [24] was 5.15. For the same compound, the Cmax [25] was 18600 nM and the Activity [26] was “inactive”.
